According to publication PMC554093, “L-histidine inhibits production of lysophosphatidic acid by the tumor-associated cytokine, autotaxin” (Lipids in Health and Disease, 2005):
Each block holds one molecule with its values, some of them ahead of it.

Columns and labels:
Assay type in all cases: biochemical
[1] = biological target: T1, autotaxin (ATX, NPP-2, lysophospholipase D) (Homo sapiens, UniProt Q13822); assay: LPLD activity (choline release from LPC) and PDE activity (pNp-TMP) with purified recombinant ATX; design: gene ENPP2; recombinant human ATX (vATX), cloned from an MDA-MB-435 cell library
[2] = biological target: T1, autotaxin (ATX, NPP-2, lysophospholipase D); assay: LPLD activity (choline release from LPC), […] compound, about […] reduction; design: gene ENPP2; recombinant human ATX (vATX); settings: read-out: % reduction at 15 mM
[3] = biological target: T1, autotaxin (ATX, NPP-2, lysophospholipase D); assay: LPLD activity (choline release from LPC), […] compound, […] reduction; methyl on the alpha nitrogen; design: gene ENPP2; recombinant human ATX (vATX); settings: read-out: % reduction at 15 mM
[4] = biological target: T1, autotaxin (ATX, NPP-2, lysophospholipase D); assay: LPLD enzyme kinetics (choline release), Km; design: gene ENPP2; recombinant human ATX (vATX)
[5] = biological target: T1, autotaxin (ATX, NPP-2, lysophospholipase D); assay: LPLD activity (choline release from LPC), […] compound, […] reduction; design: gene ENPP2; recombinant human ATX (vATX); settings: read-out: % reduction at 15 mM
[6] = biological target: T1, autotaxin (ATX, NPP-2, lysophospholipase D); assay: LPLD activity (choline release from LPC), […] compound, about […] reduction; design: gene ENPP2; recombinant human ATX (vATX); settings: read-out: % reduction at 15 mM; remark: listed apart in the source

Molecule: N[C@@H](Cc1c[nH]cn1)C(=O)O [L-histidine]
IC50 [1]: 4 ± 1.1 mM

Molecule: CN[C@@H](Cc1c[nH]cn1)C(=O)O [N-methyl histidine]
inhibition at 15000 µM [3]: 30%

Molecule: LPC (18:1)
Km [4]: 490 ± 50 µM

Molecule: N[C@H](Cc1c[nH]cn1)C(=O)O [D-histidine]
inhibition at 15000 µM [6]: ~75%

The next lines start with the values.

inhibition at 15000 µM [2]: ~20%
Molecule: NC(=O)[C@@H](N)Cc1c[nH]cn1 [histidinamide]

inhibition at 15000 µM [5]: 65%
Molecule: COC(=O)[C@@H](N)Cc1c[nH]cn1 [histidine methyl ester]
